Patent US5459160A, “Iridoid derivatives and the use thereof as a drug” (Tsumura & Co., priority 1990, dated 1995)

Key:
Acute toxicity test = settings: mouse, in vivo, ip; male S.P.P. mice, abdominally administered; Table 11
Experimental: The acute toxicity test was carried out by abdominally administering each test drug to male S.P.P. mice and determining an LD50 value.

hyperlipemia = test: Anti-hyperlipemia test in rats on high fat food (Experimental Example 1); format: in vivo, Male Wistar rats; settings: peroral once a day, two weeks, control 100, Table 1
Text: Male Wistar rats 6.5 weeks old were allowed to freely intake a high fat food (containing 1% of cholesterol, 0.5% of sodium cholate, 12% of beef tallow and 20% of standard chow) in the cource of two weeks, to thus cause an outbreak of hyperlipemia. The dose of the drug was started simultaneously with the application of the high fat food, and was perorally given once a day through a stomach tube until the end of the experiment. The drugs were all suspended in a cane sugar fatty acid ester and were administered. The oily compounds were adjusted in advance to 100 mg/m.iota. by diethyl ether. A suitable amount was collected at the time of the dose and after diethyl ether was evaporated and removed, it was suspended in a cane sugar fatty acid ester (1% ryoto sugar ester) and then given. After the final dose of the drug, the rats were fasted for about 18 hours, and the blood was sampled to measure the blood serum lipid. The blood serum lipid was measured by using a TBA-380 biochemical analyzer (a product of Toshiba Medical Co.,) unless a particular hindrance occurred.

bile secretion = test: Cholagogic action, bile secretion (Experimental Example 5); format: in vivo, male Wistar rats; settings: intraduodenal
Experimental: After male Wistar rats 7 weeks old were fasted for 24 hours, they were anesthetized by the interperitoneal administration of 1.25 g/kg (volume 2 m.iota./kg) of urethane. A polyethylene canula (SP-10, a product of Natsume Seisakusho) was inserted into a bile duct and after the bile was caused to flow out for 30 minutes, the bile was collected in the cource of 1 hour. Thereafter, each test drug was suspended or dissolved in a 1% aqueous Tween-80 solution, and was administered into the duodenum at a rate of 5 m.iota./kg. Furthermore, the bile was collected every hour in the course of five hours, and its weight was measured. Only a 1% Tween-80 solution was given as a control.
The results are tabulated in Tables 6, 7, 8, 9 and 10, wherein the bile secretion amount every hour was represented by a percentage with the bile secretion amount (mg) one hour before the dose of the test drug being 100.

[1] = 0-1 hour after dose, control 81.1, Table 9
[2] = 1-2 hour after dose, control 66.6, Table 9
[3] = 2-3 hour after dose, control 55.8, Table 9
[4] = 3-4 hour after dose, control 49.0, Table 9
[5] = 4-5 hour after dose, control 42.8, Table 9

Row | SMILES | LD50 (Acute toxicity test) | Bile secretion amount, percentage of the hour before dose (bile secretion; [1]) | Bile secretion amount, percentage of the hour before dose (bile secretion; [2]) | Bile secretion amount, percentage of the hour before dose (bile secretion; [3]) | Bile secretion amount, percentage of the hour before dose (bile secretion; [4]) | Bile secretion amount, percentage of the hour before dose (bile secretion; [5]) | also measured
1 | COC(=O)C1=CO[C@@H](O[C@@H]2O[C@H](COC(C)=O)[C@@H](OC(C)=O)[C@H](OC(C)=O)[C@H]2OC(C)=O)[C@@H]2C(C)=CC[C@H]12 [Definite Example 7, methyl (1S, 4aS, 7aS)-1-(2,3,4,6-tetra-O-acetyl-β-D-glucopyranosyloxy)-1,4a, 5,7a-tetrahydro-7-methylcyclopenta[c]pyran-4-carboxylate] | 382 mg/kg |  |  |  |  |  | Blood serum cholesterol (%) (hyperlipemia; 10 mg/kg): 94.4%; Blood serum triglyceride (%) (hyperlipemia; 10 mg/kg): 96.9%; Blood serum cholesterol (%) (hyperlipemia; 30 mg/kg): 105%; Blood serum triglyceride (%) (hyperlipemia; 30 mg/kg): 64.6%
2 | CC(C)(C)[Si](C)(C)OCC1=CC[C@@H]2C(CO)=CO[C@@H](O[Si](C)(C)C(C)(C)C)[C@H]12 [Definite Example 34, (1S, 4aS, 7aS)-1-(tert-butyldimethylsilyloxy)-7-[(tert-butyldimethylsilyloxy)methyl]-1,4a, 5,7a-tetrahydro-4-(hydroxymethyl)cyclopenta[c]pyran] | 511 mg/kg |  |  |  |  |  | 
3 | COC(=O)C1=CO[C@@H](O[C@@H]2O[C@H](CO)[C@@H](O)[C@H](O)[C@H]2O)[C@@H]2C(C)=CC[C@H]12 [Definite Example 8, methyl (1S, 4aS, 7aS)-1-(β-D-glucopyranosyloxy)-1,4a, 5,7a-tetrahydro-7-methylcyclopenta[c]pyran-4-carboxylate] |  | 85.0% | 71.7% | 60.1% | 50.6% | 44.4% | Blood serum cholesterol (%) (hyperlipemia; 10 mg/kg): 94.4%; Blood serum triglyceride (%) (hyperlipemia; 10 mg/kg): 82.5%; Blood serum cholesterol (%) (hyperlipemia; 30 mg/kg): 54.8%; Blood serum triglyceride (%) (hyperlipemia; 30 mg/kg): 68.7%
4 | COC(=O)C1=COC(=O)[C@@H]2C(CO[Si](C)(C)C(C)(C)C)=CC[C@H]12 [Definite Example 19] | 355 mg/kg |  |  |  |  |  | 
5 | OCC1=CC[C@@H]2C(CO)=CO[C@@H](OC3CCCCO3)[C@H]12 (stereo partly drawn) [Definite Example 18, (1S, 4aS, 7aS)-4,7-bis(hydroxymethyl)-1,4a, 5,7a-tetrahydro-1-(2-tetrahydropyranyloxy)cyclopenta[c]pyran] | 559 mg/kg | 91.3% | 74.6% | 60.3% | 51.1% | 44.1% | 
6 | COC(=O)C1=COC2OCC3CCC1C32 [Definite Example 12, methyl (iS, 4aS, 7R, 7aS)-1,7-(epoxymethano)-1,4a, 5,6,7,7a-hexahydrocyclopenta[c]pyran-4-carboxylate] | 527 mg/kg |  |  |  |  |  | 
7 | OCC1=CC[C@@H]2C(CO)=CO[C@@H](OC3CCCCO3)[C@H]12 (stereo partly drawn) [Definite Example 17, (1S, 4aS, 7aS)-4,7-bis (hydroxymethyl)-1,4a, 5,7a-tetrahydro-1-(2-tetrahydropyranyloxy)cyclopenta[c]pyran] |  |  |  |  |  |  | Bile secretion amount, percentage of the hour before dose (bile secretion; 0-1 hour after dose, control 82.9, Table 10): 115.7%; Bile secretion amount, percentage of the hour before dose (bile secretion; 1-2 hour after dose, control 74.1, Table 10): 77.3%; Bile secretion amount, percentage of the hour before dose (bile secretion; 2-3 hour after dose, control 66.1, Table 10): 62.9%; Bile secretion amount, percentage of the hour before dose (bile secretion; 3-4 hour after dose, control 59.8, Table 10): 54.0%; Bile secretion amount, percentage of the hour before dose (bile secretion; 4-5 hour after dose, control 53.3, Table 10): 47.2%
8 | COC(=O)C1=COC(=O)[C@@H]2C(CO)=CC[C@H]12 [Definite Example 20, methyl (4aS, 7aS)-1,4a, 5,7a-tetrahydro-7-(hydroxymethyl)-1-oxocyclopenta[c]pyran-4-carboxylate] |  | 82.6% | 66.8% | 55.1% | 48.6% | 42.8% | 
9 | COC(=O)C1=COC(=O)[C@H]2[C@@H]1CC[C@@H]2C [Definite Example 5, methyl (4aS, 7S, 7aR)-1,4a, 5,6,7,7a-hexahydro-7-methyl-1-oxocyclopenta[c]pyran-4-carboxylate] |  | 105.0% | 78.0% | 62.0% | 52.6% | 45.1% | 
10 | COC(=O)C1=COC(O)[C@@H]2[C@@H](CO)CC[C@H]12 (stereo partly drawn) [Definite Example 6, methyl (4aS, 7S, 7aS)-1,4a, 5,6,7,7a-hexahydro-1-hydroxy-7-(hydroxymethyl)cyclopenta[c]pyran-4-carboxylate] | 406 mg/kg |  |  |  |  |  | Bile secretion amount, percentage of the hour before dose (bile secretion; 0-1 hour after dose, control 84.1, Table 8): 111.4%; Bile secretion amount, percentage of the hour before dose (bile secretion; 1-2 hour after dose, control 72.5, Table 8): 78.0%; Bile secretion amount, percentage of the hour before dose (bile secretion; 2-3 hour after dose, control 63.8, Table 8): 66.7%; Bile secretion amount, percentage of the hour before dose (bile secretion; 3-4 hour after dose, control 56.7, Table 8): 55.2%; Bile secretion amount, percentage of the hour before dose (bile secretion; 4-5 hour after dose, control 51.2, Table 8): 50.3%; Blood serum cholesterol (%) (hyperlipemia; 10 mg/kg): 79.6%; Blood serum triglyceride (%) (hyperlipemia; 10 mg/kg): 86.7%; Blood serum cholesterol (%) (hyperlipemia; 30 mg/kg): 85.4%; Blood serum triglyceride (%) (hyperlipemia; 30 mg/kg): 80.4%
11 | COC(=O)C1=COC(O)[C@H]2[C@@H]1CC1OC12C (stereo partly drawn) [Definite Example 35, methyl (4aS, 7aS)-6,7-epoxy-1,4a,5,6,7,7a-hexahydro-1-hydroxy-7-methylcyclopenta[c]pyran-4-carboxylate] |  |  |  |  |  |  | Bile secretion amount, percentage of the hour before dose (bile secretion; 0-1 hour after dose, control 87.7, Table 7): 110.4%; Bile secretion amount, percentage of the hour before dose (bile secretion; 1-2 hour after dose, control 75.3, Table 7): 85.2%; Bile secretion amount, percentage of the hour before dose (bile secretion; 2-3 hour after dose, control 65.0, Table 7): 71.4%; Bile secretion amount, percentage of the hour before dose (bile secretion; 3-4 hour after dose, control 58.7, Table 7): 61.1%; Bile secretion amount, percentage of the hour before dose (bile secretion; 4-5 hour after dose, control 51.8, Table 7): 53.5%
12 | COC(=O)C1=CO[C@@H](OC2CCCCO2)[C@@H]2C(CO)=CC[C@H]12 (single isomer, unassigned) [Definite Example 16] | 412 mg/kg |  |  |  |  |  | 
13 | COC(=O)C1=COC(=O)[C@@H]2C(CO[Si](c3ccccc3)(c3ccccc3)C(C)(C)C)=CC[C@H]12 [Definite Example 28, methyl (4aS, 7aS)-7-[(tert-butyldiphenylsilyloxy)methyl]-1,4a, 5,7a-tetrahydro-1-oxocyclopenta[c]pyran-4-carboxylate] | 406 mg/kg |  |  |  |  |  | 
